According to patent US10167262B2, “Herbicidal substituted 3-arylpyrazoles” (FMC CORPORATION, priority 2014, dated 2019):

Experiments:
Assay type in all cases: in vivo
[1] = tested on: velvetleaf (Abutilon theophrasti); assay: Test C pre-/postemergence greenhouse test, plant response rating 0-100; conditions: Postemergence; for Plant response rating, Velvetleaf: scale 0 to 100
In short: (§1)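 Seeds were sown in a loam soil–sand blend and sprayed preemergence with test chemicals in a non-phytotoxic solvent mixture containing surfactant; postemergence plants in peat/vermiculite medium were treated at 2–18 cm (1- to 4-leaf stage). After 13 to 15 days in the greenhouse, injury was rated visually against untreated controls.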

[2] = tested on: yellow nutsedge (Cyperus esculentus); assay: as above; conditions: Postemergence; for Plant response rating, Nutsedge, Yellow: scale 0 to 100
In short: as §1

[3] = tested on: Italian ryegrass (Lolium multiflorum); assay: as above; conditions: Postemergence; for Plant response rating, Ryegrass, Italian: scale 0 to 100
In short: as §1

[4] = tested on: ragweed (common ragweed, Ambrosia elatior); assay: as above; conditions: Postemergence; for Plant response rating, Ragweed: scale 0 to 100;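 as to all read-outs here: 0 is no effect and 100 is complete control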
In short: as §1

[5] = tested on: lambsquarters (Chenopodium album); assay: as above; conditions: Postemergence; for Plant response rating, Lambsquarters: scale 0 to 100
In short: as §1

[6] = tested on: blackgrass (Alopecurus myosuroides); assay: as above; conditions: Postemergence; for Plant response rating, Blackgrass: scale 0 to 100;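 as to all read-outs here: 0 is no effect and 100 is complete control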
In short: as §1

[7] = tested on: morningglory (Ipomoea coccinea); assay: as above; conditions: Postemergence; for Plant response rating, Morningglory: scale 0 to 100
In short: as §1

[8] = tested on: galium (catchweed bedstraw, Galium aparine); assay: as above; conditions: Postemergence; for Plant response rating, Galium: scale 0 to 100
In short: as §1

soybean (Glycine max) = assay: as above; conditions: Postemergence; for Plant response rating, Soybean: scale 0 to 100
In short: as §1

[9] = tested on: large (Lg) crabgrass (Digitaria sanguinalis); assay: as above; conditions: Postemergence; for Plant response rating, Crabgrass, Large: scale 0 to 100
In short: as §1

[10] = tested on: pigweed (Amaranthus retroflexus); assay: as above; conditions: Postemergence; for Plant response rating, Pigweed: scale 0 to 100
In short: as §1

corn (Zea mays) = assay: as above; conditions: Postemergence; for Plant response rating, Corn: 250 g ai/ha, scale 0 to 100
In short: as §1

[11] = tested on: bermudagrass (Cynodon dactylon); assay: Test C postemergence greenhouse test, plant response rating 0-100; conditions: for Plant response rating, Bermudagrass: scale 0 to 100
In short: (§2)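 Response is a visual 0–100 control rating taken 13 to 15 days post-treatment, with a dash marking no result. Plants ranged 2 to 18 cm when treated postemergence.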

[12] = tested on: goosegrass (Eleusine indica); assay: as above; conditions: for Plant response rating, Goosegrass: scale 0 to 100
In short: as §2

CCn1cc(C(=O)c2cccs2)c(-c2cc(Cl)cc(Cl)c2)n1 [Compound 18]
Plant response rating (0 to 100), Velvetleaf ([1]; 62 g ai/ha): 50 | Plant response rating (0 to 100), Velvetleaf ([1]; 125 g ai/ha): 65 | Plant response rating, Velvetleaf ([1]; 250 g ai/ha): 70 | Plant response rating, Velvetleaf ([1]; 500 g ai/ha): 80 | Plant response rating (0 to 100), Nutsedge, Yellow ([2]; 62 g ai/ha): 0 | Plant response rating (0 to 100), Nutsedge, Yellow ([2]; 125 g ai/ha): 0 | Plant response rating, Nutsedge, Yellow ([2]; 250 g ai/ha): 5 | Plant response rating, Nutsedge, Yellow ([2]; 500 g ai/ha): 5 | Plant response rating (0 to 100), Ryegrass, Italian ([3]; 62 g ai/ha): 0 | Plant response rating (0 to 100), Ryegrass, Italian ([3]; 125 g ai/ha): 0 | Plant response rating, Ryegrass, Italian ([3]; 250 g ai/ha): 0 | Plant response rating, Ryegrass, Italian ([3]; 500 g ai/ha): 5 | Plant response rating (0 to 100), Ragweed ([4]; 125 g ai/ha): 10 | Plant response rating, Ragweed ([4]; 250 g ai/ha): 15 | Plant response rating, Ragweed ([4]; 500 g ai/ha): 25 | Plant response rating (0 to 100), Lambsquarters ([5]; 62 g ai/ha): 60 | Plant response rating (0 to 100), Lambsquarters ([5]; 125 g ai/ha): 85 | Plant response rating, Lambsquarters ([5]; 250 g ai/ha): 85 | Plant response rating, Lambsquarters ([5]; 500 g ai/ha): 90 | Plant response rating (0 to 100), Blackgrass ([6]; 62 g ai/ha): 0 | Plant response rating, Blackgrass ([6]; 125 g ai/ha): 0 | Plant response rating, Blackgrass ([6]; 250 g ai/ha): 0 | Plant response rating, Blackgrass ([6]; 500 g ai/ha): 0 | Plant response rating (0 to 100), Morningglory ([7]; 62 g ai/ha): 5 | Plant response rating (0 to 100), Morningglory ([7]; 125 g ai/ha): 10 | Plant response rating, Morningglory ([7]; 250 g ai/ha): 20 | Plant response rating, Morningglory ([7]; 500 g ai/ha): 45 | Plant response rating (0 to 100), Galium ([8]; 62 g ai/ha): 0 | Plant response rating (0 to 100), Galium ([8]; 125 g ai/ha): 0 | Plant response rating, Galium ([8]; 250 g ai/ha): 0 | Plant response rating, Galium ([8]; 500 g ai/ha): 35 | Plant response rating (0 to 100), Soybean (soybean (Glycine max); 62 g ai/ha): 5 | Plant response rating (0 to 100), Soybean (soybean (Glycine max); 125 g ai/ha): 15 | Plant response rating, Soybean (soybean (Glycine max); 250 g ai/ha): 20 | Plant response rating, Soybean (soybean (Glycine max); 500 g ai/ha): 20 | Plant response rating (0 to 100), Crabgrass, Large ([9]; 62 g ai/ha): 5 | Plant response rating (0 to 100), Crabgrass, Large ([9]; 125 g ai/ha): 5 | Plant response rating, Crabgrass, Large ([9]; 250 g ai/ha): 15 | Plant response rating, Crabgrass, Large ([9]; 500 g ai/ha): 20 | Plant response rating (0 to 100), Pigweed ([10]; 62 g ai/ha): 85 | Plant response rating (0 to 100), Pigweed ([10]; 125 g ai/ha): 100 | Plant response rating, Pigweed ([10]; 250 g ai/ha): 100 | Plant response rating, Pigweed ([10]; 500 g ai/ha): 100 | Plant response rating (0 to 100), Corn (corn (Zea mays); 125 g ai/ha): 5 | Plant response rating, Corn (corn (Zea mays)): 10 | Plant response rating (0 to 100), Bermudagrass ([11]; 62 g ai/ha): 0 | Plant response rating, Bermudagrass ([11]; 125 g ai/ha): 0 | Plant response rating, Bermudagrass ([11]; 250 g ai/ha): 0 | Plant response rating, Bermudagrass ([11]; 500 g ai/ha): 5 | Plant response rating (0 to 100), Goosegrass ([12]; 62 g ai/ha): 0 | Plant response rating (0 to 100), Goosegrass ([12]; 125 g ai/ha): 0 | Plant response rating, Goosegrass ([12]; 250 g ai/ha): 10 | Plant response rating, Goosegrass ([12]; 500 g ai/ha): 15

ON=C(c1ccccc1)c1c[nH]nc1-c1cc(Cl)cc(Cl)c1 [Compound 50]
Plant response rating (0 to 100), Velvetleaf ([1]; 62 g ai/ha): 75 | Plant response rating (0 to 100), Velvetleaf ([1]; 125 g ai/ha): 90 | Plant response rating, Velvetleaf ([1]; 250 g ai/ha): 95 | Plant response rating (0 to 100), Nutsedge, Yellow ([2]; 62 g ai/ha): 0 | Plant response rating (0 to 100), Nutsedge, Yellow ([2]; 125 g ai/ha): 0 | Plant response rating, Nutsedge, Yellow ([2]; 250 g ai/ha): 0 | Plant response rating (0 to 100), Ryegrass, Italian ([3]; 62 g ai/ha): 0 | Plant response rating (0 to 100), Ryegrass, Italian ([3]; 125 g ai/ha): 0 | Plant response rating, Ryegrass, Italian ([3]; 250 g ai/ha): 0 | Plant response rating (0 to 100), Ragweed ([4]; 62 g ai/ha): 0 | Plant response rating (0 to 100), Ragweed ([4]; 125 g ai/ha): 0 | Plant response rating, Ragweed ([4]; 250 g ai/ha): 45 | Plant response rating (0 to 100), Lambsquarters ([5]; 62 g ai/ha): 80 | Plant response rating (0 to 100), Lambsquarters ([5]; 125 g ai/ha): 100 | Plant response rating, Lambsquarters ([5]; 250 g ai/ha): 100 | Plant response rating (0 to 100), Blackgrass ([6]; 31 g ai/ha): 0 | Plant response rating (0 to 100), Blackgrass ([6]; 62 g ai/ha): 0 | Plant response rating (0 to 100), Blackgrass ([6]; 125 g ai/ha): 0 | Plant response rating, Blackgrass ([6]; 250 g ai/ha): 0 | Plant response rating (0 to 100), Morningglory ([7]; 62 g ai/ha): 0 | Plant response rating (0 to 100), Morningglory ([7]; 125 g ai/ha): 0 | Plant response rating, Morningglory ([7]; 250 g ai/ha): 0 | Plant response rating (0 to 100), Galium ([8]; 31 g ai/ha): 0 | Plant response rating (0 to 100), Galium ([8]; 62 g ai/ha): 0 | Plant response rating (0 to 100), Galium ([8]; 125 g ai/ha): 5 | Plant response rating, Galium ([8]; 250 g ai/ha): 5 | Plant response rating (0 to 100), Soybean (soybean (Glycine max); 62 g ai/ha): 0 | Plant response rating (0 to 100), Soybean (soybean (Glycine max); 125 g ai/ha): 0 | Plant response rating, Soybean (soybean (Glycine max); 250 g ai/ha): 0 | Plant response rating (0 to 100), Crabgrass, Large ([9]; 31 g ai/ha): 0 | Plant response rating (0 to 100), Crabgrass, Large ([9]; 62 g ai/ha): 0 | Plant response rating (0 to 100), Crabgrass, Large ([9]; 125 g ai/ha): 0 | Plant response rating, Crabgrass, Large ([9]; 250 g ai/ha): 0 | Plant response rating (0 to 100), Pigweed ([10]; 62 g ai/ha): 75 | Plant response rating (0 to 100), Pigweed ([10]; 125 g ai/ha): 100 | Plant response rating, Pigweed ([10]; 250 g ai/ha): 100 | Plant response rating (0 to 100), Corn (corn (Zea mays); 31 g ai/ha): 0 | Plant response rating (0 to 100), Corn (corn (Zea mays); 62 g ai/ha): 0 | Plant response rating (0 to 100), Corn (corn (Zea mays); 125 g ai/ha): 0 | Plant response rating, Corn (corn (Zea mays)): 0 | Plant response rating (0 to 100), Bermudagrass ([11]; 31 g ai/ha): 0 | Plant response rating (0 to 100), Bermudagrass ([11]; 62 g ai/ha): 0 | Plant response rating (0 to 100), Bermudagrass ([11]; 125 g ai/ha): 0 | Plant response rating, Bermudagrass ([11]; 250 g ai/ha): 0 | Plant response rating (0 to 100), Goosegrass ([12]; 31 g ai/ha): 0 | Plant response rating (0 to 100), Goosegrass ([12]; 62 g ai/ha): 0 | Plant response rating (0 to 100), Goosegrass ([12]; 125 g ai/ha): 0 | Plant response rating, Goosegrass ([12]; 250 g ai/ha): 0
